According to patent US20240398781A1, “SPIROCYCLIC CYCLIC MODULATORS OF CHOLESTEROL BIOSYNTHESIS AND THEIR USE FOR PROMOTING REMYELINATION” (GENENTECH, INC., priority 2021, published 2024):

Columns and labels:
[1] = tested on: EBP (zymostenol accumulation in EpiSC-derived OPCs); assay: GC/MS-based sterol profiling, zymostenol accumulation in OPCs; type: cell-based, mouse; conditions: Mus musculus, 24 h, EpiSC-derived OPCs, 24 hr treatment, 8 doses from 0.15 nM to 333 nM; read-out: Zymostenol GCMS EC50
How it was run: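 EpiSC-derived OPCs (100,000/well) were treated 24 h in N2B27 without growth factors. Sterols were TMS-derivatized and analysed by GC/MS full-scan EI, quantified against cholesterol-d7. Zymostenol was normalized to the level after 24 h with 100 nM positive control reference.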

[2] = tested on: EpiSC-derived OPCs; assay: In vitro phenotypic screening of OPCs (MBP staining, high-content imaging); type: cell-based, mouse; conditions: Mus musculus, 72 h, percentage of MBP+ oligodendrocytes, 3 days, 0.5 nM to 1000 nM; read-out: OPC EC50
Description: To assess effects of treatments on OPCs, all treatments were assayed in two or more independent platings of epiblast stem cell-derived OPCs (EpiSC). EpiSC-derived OPCs were obtained using in vitro differentiation protocols and culture conditions described previously (Najm et al, 2011, Nature Methods). OPCs were expanded and frozen down in aliquots. OPCs were thawed into growth conditions for at least one passage before use in further assays.
EpiSC-derived OPCs were grown and expanded in poly-L-ornithine (PO) and laminin-coated flasks in N2B27 media (DMEM/F12 (Gibco), N2-MAX (R&D Systems), B-27 (ThermoFisher), and GlutaMax (Gibco)) supplemented with FGF2 ([…], R&D systems, 233-FB-025) and PDGF-AA ([…], R&D systems, 233-AA-050) before harvesting for experiments. The cells were seeded onto poly-L-ornithine or poly-D-lysine coated CellCarrier Ultra plates (PerkinElmer) coated with laminin (Sigma, L2020) at a density of 150,000/cm^2 in N2B27 media without growth factors. For dose-response testing, a 1000× compound stock in dimethyl sulphoxide (DMSO) was added to assay plates, resulting in 8-point dose curves with final concentrations between 1000 nM and 0.5 nM. Positive controls and DMSO vehicle controls were included in each assay plate. Cells were incubated under standard conditions (37° C., 5% CO2) for 3 days and fixed with 4% paraformaldehyde (PFA) in phosphate buffered saline (PBS) for 20 min. Fixed plates were washed with PBS, permeabilized with 0.1% Triton X-100, and blocked with 10% donkey serum (v/v) in PBS for 40 min. Then, cells were labelled with MBP antibodies (Abcam, ab7349; 1:200) for 2 h at room temperature, washed with PBS, and stained with Alexa Fluor conjugated secondary antibodies (1:500) for 45 min. Nuclei were visualized by DAPI staining (Sigma; 1 μg/ml), followed by further PBS washes.
Cells and cell culture plates were imaged on the Operetta High Content Imaging and Analysis system (PerkinElmer). Analysis (PerkinElmer Harmony and Columbus software) began by identifying intact nuclei stained by DAPI. The peri-nuclear region of each cell was then cross-referenced with the mature myelin protein (MBP) stain to identify oligodendrocyte nuclei, and from this the percentage of oligodendrocytes was calculated. EC50 values were calculated using The Levenberg-Marquardt algorithm to fit a Hill equation to dose-response data (0.5 nM to 1000 nM).

[3] = target: human emopamil binding protein and human 7-dehydrocholesterol reductase co-expressing cells (hEBP-DHCR7 membrane) (Homo sapiens (Human), UniProt Q15125); assay: Radioligand filter binding assay on hEBP-DHCR7 membrane; conditions: [3H]-(S)-6-(2-Methyl-3-(6-(trifluoromethyl)pyridin-3-yl)propyl)-2-thia-6-azaspiro[3.4]octane 2,2-dioxide radioligand, HEK293 membrane co-expressing hEBP and hDHCR7
How it was run: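 HEK293 cells transiently co-expressing human EBP and DHCR7 supplied whole-cell membranes (10 μg/well), incubated 3 h at 22 °C with [3H]-labelled spiro-octane dioxide ligand (added at 25 nM) and compound (0.06-5000 nM final, 8 doses, n=2). Bound ligand was collected on PEI-treated GF/B filters and counted by scintillation. IC50 was Hill-fitted from % inhibition and reported as Ki.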

Chain of human emopamil binding protein and human 7-dehydrocholesterol reductase co-expressing cells (hEBP-DHCR7 membrane) (Q15125 whole entry): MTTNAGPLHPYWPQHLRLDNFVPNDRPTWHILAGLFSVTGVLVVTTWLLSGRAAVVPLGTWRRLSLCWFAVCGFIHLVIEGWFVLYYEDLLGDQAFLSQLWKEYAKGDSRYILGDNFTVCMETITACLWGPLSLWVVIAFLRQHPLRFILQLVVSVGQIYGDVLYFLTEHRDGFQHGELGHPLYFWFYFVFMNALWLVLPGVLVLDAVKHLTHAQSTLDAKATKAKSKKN

`O=S1(=O)CC2(CCN([C@H]3CC[C@H](c4cccc(C(F)(F)F)n4)CC3)C2)C1` [Compound 62B, 6-((1r,4r)-4-(6-(trifluoromethyl)pyridin-2-yl)cyclohexyl)-2-thia-6-azaspiro[3.4]octane 2,2-dioxide] showed an EC50 [1] of 6.4 nM, an EC50 [2] of 13 nM and a Ki [3] of 37 nM.
In the case of `O=S1(=O)CC2(CCN([C@H]3CC[C@H](c4ccnc(C(F)(F)F)c4)CC3)C2)C1` [Compound 60A, 6-((1r,4r)-4-(2-(trifluoromethyl)pyridin-4-yl)cyclohexyl)-2-thia-6-azaspiro[3.4]octane 2,2-dioxide], the EC50 [1] is reported as 10 nM, the EC50 [2] is reported as 21 nM and the Ki [3] is reported as 133 nM.
Work on `O=S1(=O)CC2(CCN([C@H]3CCC[C@H](c4ccc(C(F)(F)F)nc4)C3)CC2)C1` (single isomer, unassigned) [56B*] yielded an EC50 [1] of 320 nM, an EC50 [2] of 870 nM and a Ki [3] of 170 nM.
In the case of `O=S1(=O)CC2(CCN([C@H]3CCC[C@H](c4ccc(C(F)(F)F)nc4)C3)C2)C1` (single isomer, unassigned) [54D*], the EC50 [1] is reported as 13 nM, the EC50 [2] is reported as 35 nM and the Ki [3] is reported as 68 nM.
`O=S1(=O)CC2(CCN(C3CCN(c4ncc(F)cc4C(F)(F)F)CC3)C2)C1` [Compound 45, 6-(1-(5-Fluoro-3-(trifluoromethyl)pyridin-2-yl)piperidin-4-yl)-2-thia-6-azaspiro[3.4]octane 2,2-dioxide] was tested, and the EC50 [1] was 13 nM, the EC50 [2] was 49 nM and the Ki [3] was 17 nM.
Work on `O=S1(=O)CC2(CCN([C@H]3CC[C@H](c4ccc(F)c(F)c4)CC3)C2)C1` [Compound 70A, 6-((1r,4r)-4-(3,4-difluorophenyl)cyclohexyl)-2-thia-6-azaspiro[3.4]octane 2,2-dioxide] yielded an EC50 [1] of 4 nM, an EC50 [2] of 18 nM and a Ki [3] of 6.5 nM.
`O=S1(=O)CC[C@@]2(CCCN([C@H]3CC[C@H](c4ccc(C(F)(F)F)cn4)CC3)C2)C1` (single isomer, unassigned) [68B*] showed an EC50 [1] of 5.8 nM, an EC50 [2] of 22 nM and a Ki [3] of 41 nM.
With `Cc1nc(C(F)(F)F)ccc1[C@H]1CC[C@H](N2CCC3(C2)CS(=O)(=O)C3)CC1` [Compound 51A, 6-((1r,4r)-4-(2-Methyl-6-(trifluoromethyl)pyridin-3-yl)cyclohexyl)-2-thia-6-azaspiro[3.4]octane 2,2-dioxide] the EC50 [1] was 8.3 nM, the EC50 [2] was 18 nM and the Ki [3] was 26 nM.
With `O=S1(=O)CC2(CCN([C@@H]3CCC[C@H](c4ccc(C(F)(F)F)nc4)C3)CC2)C1` (single isomer, unassigned) [56A*] the EC50 [1] was 30 nM, the EC50 [2] was 270 nM and the Ki [3] was 61 nM.
For `O=S1(=O)CC2(CCN([C@H]3CC[C@H](c4ccnc(C(F)(F)F)n4)CC3)C2)C1` [Compound 88, 6-((1r,4r)-4-(2-(Trifluoromethyl)pyrimidin-4-yl)cyclohexyl)-2-thia-6-azaspiro[3.4]octane 2,2-dioxide], the EC50 [1] was 16 nM, the EC50 [2] was 110 nM and the Ki [3] was 73 nM.
`O=S1(=O)CC2(CCN([C@H]3CCCN(c4ccc(C(F)(F)F)cc4)C3)CC2)C1` (single isomer, unassigned) [55B*] showed an EC50 [1] of 25 nM, an EC50 [2] of 330 nM and a Ki [3] of 14 nM.
For `O=S1(=O)CC2(CCN([C@H]3CC[C@H](c4ncc(C(F)(F)F)cc4F)CC3)C2)C1` [Compound 59, 6-((1r,4r)-4-(3-Fluoro-5-(trifluoromethyl)pyridin-2-yl)cyclohexyl)-2-thia-6-azaspiro[3.4]octane 2,2-dioxide], the EC50 [1] was 13 nM, the EC50 [2] was 82 nM and the Ki [3] was 72 nM.
`CC(C)n1nc(C(F)(F)F)cc1[C@@H]1CCC[C@H](N2CCC3(C2)CS(=O)(=O)C3)C1` (single isomer, unassigned) [61C*] was tested, and the EC50 [1] was 7.5 nM, the EC50 [2] was 53 nM and the Ki [3] was 31 nM.
`CC(C)n1nc(-c2ccc(C(F)(F)F)cc2)nc1[C@H]1CC[C@@H](N2CCC3(C2)CS(=O)(=O)C3)C1` (single isomer, unassigned) [53B*] gave an EC50 [1] of 0.89 nM, an EC50 [2] of 2.4 nM and a Ki [3] of 9.9 nM.
`O=S1(=O)CC2(CCN([C@H]3CC[C@H](c4ccc(C(F)(F)F)nc4C4CC4)CC3)C2)C1` [Compound 75, 6-((1r,4r)-4-(2-Cyclopropyl-6-(trifluoromethyl)pyridin-3-yl)cyclohexyl)-2-thia-6-azaspiro[3.4]octane 2,2-dioxide] showed an EC50 [1] of 3.2 nM, an EC50 [2] of 5 nM and a Ki [3] of 11 nM.
`O=S1(=O)CC2(CCN(C3CCN(c4ncc(C(F)(F)F)cc4F)CC3)CC2)C1` [Compound 52, 7-(1-(3-Fluoro-5-(trifluoromethyl)pyridin-2-yl)piperidin-4-yl)-2-thia-7-azaspiro[3.5]nonane 2,2-dioxide] was tested, and the EC50 [1] was 4.8 nM, the EC50 [2] was 7.7 nM and the Ki [3] was 18 nM.
Molecule `CCn1nc(-c2ccc(C(F)(F)F)nc2)nc1[C@H]1CC[C@@H](N2CCC3(CC2)CS(=O)(=O)C3)CC1` (stereo in doubt) [43B*, (cis)-7-(-4-(1-ethyl-3-(6-(trifluoromethyl)pyridin-3-yl)-1H-1,2,4-triazol-5-yl)cyclohexyl)-2-thia-7-azaspiro[3.5]nonane 2,2-dioxide] has an EC50 [1] of 80 nM, an EC50 [2] of 160 nM and a Ki [3] of 510 nM.
Molecule `O=S1(=O)CC2(CCN([C@H]3CC[C@@H](c4ccc(C(F)(F)F)cc4)C3)C2)C1` [Compound 1A, 6-((1S,3R)-3-(4-(trifluoromethyl)phenyl)cyclopentyl)-2-thia-6-azaspiro[3.4]octane 2,2-dioxide] has an EC50 [1] of 4.9 nM, an EC50 [2] of 17 nM and a Ki [3] of 14.8 nM.
In the case of `CC(C)n1nc(C(F)(F)F)cc1[C@H]1CCC[C@@H](N2CCC3(CC2)CS(=O)(=O)C3)C1` (single isomer, unassigned) [78C*], the EC50 [1] is reported as 28 nM, the EC50 [2] is reported as 273 nM and the Ki [3] is reported as 790 nM.
`CC(C)n1nc(-c2cccc(C(F)(F)F)n2)cc1[C@@H]1CC[C@H](N2CCC3(CC2)CS(=O)(=O)C3)C1` (single isomer, unassigned) [46B*] was tested, and the EC50 [1] was 2.7 nM, the EC50 [2] was 4.9 nM and the Ki [3] was 35 nM.
Work on `CC(C)n1nc(-c2ccc(C(F)(F)F)cc2)nc1[C@H]1CCC(N2CCC3(CC2)CS(=O)(=O)C3)C1` (stereo in doubt) [Compound 58B, 7-((1S,3S)-3-(1-isopropyl-3-(4-(trifluoromethyl)phenyl)-1H-1,2,4-triazol-5-yl)cyclopentyl)-2-thia-7-azaspiro[3.5]nonane 2,2-dioxide] yielded an EC50 [1] of 2.3 nM, an EC50 [2] of 3.4 nM and a Ki [3] of 21 nM.
Molecule `O=S1(=O)CC2(CCN([C@H]3CC[C@H](c4ccc(C(F)(F)F)nc4)C3)CC2)C1` (single isomer, unassigned) [57D*] has an EC50 [1] of 18 nM, an EC50 [2] of 130 nM and a Ki [3] of 150 nM.
Work on `CC(C)(C)n1nc(C(F)(F)F)cc1[C@H]1CC[C@@H](N2CCC3(CC2)CS(=O)(=O)C3)CC1` [Compound 85B, 7-((1s,4s)-4-(1-(tert-butyl)-3-(trifluoromethyl)-1H-pyrazol-5-yl)cyclohexyl)-2-thia-7-azaspiro[3.5]nonane 2,2-dioxide] yielded an EC50 [1] of 17 nM, an EC50 [2] of 48 nM and a Ki [3] of 300 nM.
For `O=S1(=O)CC2(CCN(C3CC[C@H](c4nc(-c5cccc(C(F)(F)F)n5)nn4C4CC4)C3)CC2)C1` (stereo in doubt) [42D*, 7-((1R,3S)-3-(1-Cyclopropyl-3-(6-(trifluoromethyl)pyridin-2-yl)-1H-1,2,4-triazol-5-yl)cyclopentyl)-2-thia-7-azaspiro[3.5]nonane 2,2-dioxide], the EC50 [1] was 45 nM, the EC50 [2] was 120 nM and the Ki [3] was 670 nM.
`O=S1(=O)CC2(CCN([C@H]3CC[C@H](c4ccc(C(F)(F)F)cc4)C3)C2)C1` [Compound 1D, 6-((1S,3S)-3-(4-(trifluoromethyl)phenyl)cyclopentyl)-2-thia-6-azaspiro[3.4]octane 2,2-dioxide] showed an EC50 [1] of 4.9 nM, an EC50 [2] of 18 nM and a Ki [3] of 15 nM.
